What was measured:
[1] = target: VEGFR-2 (Homo sapiens, UniProt P35968); conditions: little or no inhibition on other kinases; cited from earlier work
[2] = tested on: mouse colon cancer cell MC-38 (PD-L1) xenograft; experiment: MC38 (PD-L1) xenograft in human PD-1 transgenic C57 mice; type: in vivo; conditions: anti-PD-1 antibody 3 mg/kg ip Q2D*7, apatinib 200 mg/kg po QD*14
Protocol: • 1. Study purposes: Human PD-1 transgenic mice were used as test animals. The effects of anti-PD-1 antibody in combination with apartinib on human PD-1 expressed in transgenic C57 mice were evaluated, and the transgenic mice bear mouse colon cancer cell MC-38 (PD-L1) xenograft transfected with PD-L1 gene. • 2. Test antibodies and compounds: The anti-PD-1 antibody was prepared according to the method disclosed in WO2015085847 in which the corresponding code of the antibody is H005-1, and the sequences of the heavy and light chain are shown in SEQ ID NO: 7 and SEQ ID NO: 8 in the present invention. Lot number: P1512, 200 mg/vial, formulated into 20 mg/ml before use. Apatinib mesylate was prepared according to the method disclosed in CN101676267A, lot number: 668160401; molecular weight: 493.58; purity: 99.60%. • 3. Experimental animals: Human PD-1 transgenic C57 mice, specific-pathogen-free (SPF), with different body weights, 50% male and 50% female, were purchased from IsisInnovation Limited, UK. • 4. Drug preparation: Anti-PD-1 antibody (3 mg/kg): anti-PD-1 antibody stock solution (20 mg/ml) was adjusted to a concentration of 0.3 mg/ml with phosphate buffered saline (PBS), and the intraperitoneal injection volume was 0.2 ml/mouse. Apatinib (200 mg/kg): 400 mg apatinib was dissolved in 20 ml of 0.5% sodium carboxymethylcellulose (NaCMC), adjusted to 20 mg/ml, and was administered in 0.2 ml per mouse by gavage. […] The specific drug administration regimen is shown in Table 1. • 5.4 Determination of volume of xenograft and body weight of mice: Tumor volume and body weight were measured twice a week and data were recorded. • 5.5 Statistics: Excel 2003 statistical software was used: the mean was calculated by avg; the SD value was calculated by STDEV; the SEM value was calculated by STDEV/SQRT; the P value indicating the difference between groups is calculated by TTEST. […]

[3] = tested on: metastatic gastric/gastroesophageal junction cancer; conditions: cited from earlier work
[4] = apatinib alone compared with placebo

Sequence of VEGFR-2 (P35968 20-1356, species assumed): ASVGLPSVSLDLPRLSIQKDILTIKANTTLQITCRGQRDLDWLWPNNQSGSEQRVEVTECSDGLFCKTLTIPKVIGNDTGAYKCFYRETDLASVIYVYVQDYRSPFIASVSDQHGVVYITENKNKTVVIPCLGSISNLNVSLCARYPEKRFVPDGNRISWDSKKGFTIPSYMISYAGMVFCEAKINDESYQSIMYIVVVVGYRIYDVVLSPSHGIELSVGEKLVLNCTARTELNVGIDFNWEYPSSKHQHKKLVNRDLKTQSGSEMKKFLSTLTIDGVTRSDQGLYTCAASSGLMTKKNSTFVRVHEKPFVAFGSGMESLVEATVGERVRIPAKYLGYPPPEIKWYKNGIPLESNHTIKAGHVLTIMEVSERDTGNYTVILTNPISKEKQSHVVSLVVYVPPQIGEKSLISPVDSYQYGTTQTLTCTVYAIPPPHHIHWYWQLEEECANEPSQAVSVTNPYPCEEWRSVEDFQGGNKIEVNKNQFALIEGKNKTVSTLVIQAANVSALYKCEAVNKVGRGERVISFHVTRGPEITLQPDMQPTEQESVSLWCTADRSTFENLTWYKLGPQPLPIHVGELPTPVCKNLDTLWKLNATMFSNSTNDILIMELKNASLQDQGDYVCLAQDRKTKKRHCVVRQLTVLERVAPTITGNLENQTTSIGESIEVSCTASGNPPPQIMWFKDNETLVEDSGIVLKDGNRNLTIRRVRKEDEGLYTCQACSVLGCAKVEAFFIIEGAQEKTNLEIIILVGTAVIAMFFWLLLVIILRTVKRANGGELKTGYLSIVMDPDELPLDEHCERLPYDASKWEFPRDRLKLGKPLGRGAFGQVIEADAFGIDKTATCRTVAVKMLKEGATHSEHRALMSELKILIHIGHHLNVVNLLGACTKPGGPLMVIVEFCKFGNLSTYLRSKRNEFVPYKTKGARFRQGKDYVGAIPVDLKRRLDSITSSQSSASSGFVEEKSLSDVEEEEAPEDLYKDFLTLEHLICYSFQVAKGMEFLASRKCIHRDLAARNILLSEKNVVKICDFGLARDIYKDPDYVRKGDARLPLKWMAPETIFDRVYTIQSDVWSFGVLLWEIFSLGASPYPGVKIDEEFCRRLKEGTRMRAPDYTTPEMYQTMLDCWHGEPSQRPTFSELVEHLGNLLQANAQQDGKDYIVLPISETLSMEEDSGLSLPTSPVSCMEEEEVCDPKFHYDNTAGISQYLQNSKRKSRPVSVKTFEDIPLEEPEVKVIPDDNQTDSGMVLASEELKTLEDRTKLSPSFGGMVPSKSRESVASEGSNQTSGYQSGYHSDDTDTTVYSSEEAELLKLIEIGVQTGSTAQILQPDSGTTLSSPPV

In the case of `N#CC1(c2ccc(NC(=O)c3cccnc3NCc3ccncc3)cc2)CCCC1` [apatinib, reference compound], the “selectivity for VEGFR-2 over other kinases” value [1] is given as “highly selective for VEGFR-2”, the “Relative tumor volume D21” value ([2]; RTV=VT/V0, day 21) is given as 9.27 and the “% Tumor inhibition rate D21” value ([2]; day 21, vs HIgG control) is given as 25.67%. For the same compound, the “Mean tumor volume (mm^3) D21” value ([2]; day 21 after initial administration, 8 mice/group) was 1263.86 mm^3, the “prolongation of median overall survival” value [3, 4] was 1.8 months and the “prolongation of median progression-free survival” value [3, 4] was 0.8 months. For the same compound, the adverse events ([3]; apatinib alone) was “controllable”.
